From ChEMBL document CHEMBL1135389, “7-Substituted 5-amino-2-(2-furyl)pyrazolo[4,3-e]-1,2,4-triazolo[1,5-c]pyrimidines as A2A adenosine receptor antagonists: a study on the importance of modifications at the side chain on the activity and solubility” (J Med Chem, 2002)

Key:
Adenosine receptor A2a [1] = target: T1, Adenosine receptor A2a (Homo sapiens, UniProt P29274); assay: biochemical
Adenosine receptor A3 = target: T2, Adenosine receptor A3 (Homo sapiens, UniProt P0DMS8); assay: Displacement of specific [3H]MRE3008-F20 binding at human adenosine A3 receptor expressed in CHO cells.; type: cell-based
T2 sequence (P0DMS8 whole entry): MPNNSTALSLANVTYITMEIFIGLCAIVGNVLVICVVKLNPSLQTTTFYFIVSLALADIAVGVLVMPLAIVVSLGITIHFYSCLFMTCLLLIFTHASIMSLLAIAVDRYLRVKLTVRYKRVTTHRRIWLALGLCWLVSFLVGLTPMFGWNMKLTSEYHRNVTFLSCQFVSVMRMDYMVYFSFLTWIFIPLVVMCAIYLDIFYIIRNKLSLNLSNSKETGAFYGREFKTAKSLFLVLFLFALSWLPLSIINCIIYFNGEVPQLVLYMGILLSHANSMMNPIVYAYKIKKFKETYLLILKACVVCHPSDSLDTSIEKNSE

Adenosine receptor A2b = target: T3, Adenosine receptor A2b (Homo sapiens, UniProt P29275); assay: biochemical
T3 sequence (P29275 whole entry): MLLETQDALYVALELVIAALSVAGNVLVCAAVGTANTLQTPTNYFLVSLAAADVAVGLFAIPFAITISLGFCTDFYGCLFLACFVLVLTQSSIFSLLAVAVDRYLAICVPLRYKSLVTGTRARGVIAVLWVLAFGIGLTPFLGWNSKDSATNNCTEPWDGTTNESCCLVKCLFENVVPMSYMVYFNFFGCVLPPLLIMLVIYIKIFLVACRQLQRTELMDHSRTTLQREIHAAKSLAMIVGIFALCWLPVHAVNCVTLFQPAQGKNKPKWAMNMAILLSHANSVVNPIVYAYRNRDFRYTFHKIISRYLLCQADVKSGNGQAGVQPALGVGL
Description: Displacement of specific [3H]DPCPX binding at human adenosine A2B receptor expressed in HEK293 cells.

Adenosine receptor A1 [2] = target: T4, Adenosine receptor A1 (Homo sapiens, UniProt P30542); assay: biochemical
T4 sequence (P30542 whole entry): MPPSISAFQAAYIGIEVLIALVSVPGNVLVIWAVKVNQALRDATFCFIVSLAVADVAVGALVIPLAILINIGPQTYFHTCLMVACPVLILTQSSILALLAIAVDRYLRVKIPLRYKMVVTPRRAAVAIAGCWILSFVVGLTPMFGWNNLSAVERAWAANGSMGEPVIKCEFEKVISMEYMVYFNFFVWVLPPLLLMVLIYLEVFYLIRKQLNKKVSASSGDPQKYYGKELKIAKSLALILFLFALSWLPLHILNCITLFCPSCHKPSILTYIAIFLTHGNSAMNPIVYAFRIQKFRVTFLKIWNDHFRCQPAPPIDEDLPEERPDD
Description: Displacement of specific [3H]DPCPX binding at human Adenosine A1 receptor expressed in CHO cells.

Adenosine receptor A1 [3] = target: T4, Adenosine receptor A1; assay: Displacement of [3H]DPCPX from human Adenosine A1 receptor expressed in CHO cells; ranges from 3420-3788; type: cell-based
Adenosine receptor A2a [4] = target: T1, Adenosine receptor A2a; assay: Displacement of [3H]-SCH- 58261 binding at human Adenosine A2A receptor expressed in HEK293 cells; ranges from 49-72; type: cell-based
Adenosine receptor A2a [5] = target: T1, Adenosine receptor A2a; assay: Displacement of [3H]-SCH- 58261 binding at human Adenosine A2A receptor expressed in HEK293 cells; ranges from 0.69-0.92; type: cell-based
Adenosine receptor A1 [6] = target: T4, Adenosine receptor A1; assay: Displacement of [3H]-DPCPX from human Adenosine A1 receptor expressed in CHO cells; ranges from 2153-2891; type: cell-based
Adenosine receptor A1 [7] = target: T4, Adenosine receptor A1; assay: Displacement of [3H]DPCPX binding at human Adenosine A1 receptor expressed in CHO cells; ranges from 8783-9911; type: cell-based
Adenosine receptor A2a [8] = target: T1, Adenosine receptor A2a; assay: Displacement of [3H]-SCH- 58261 binding at human Adenosine A2A receptor expressed in HEK293 cells; ranges from 48.9-52.4; type: cell-based
Adenosine receptor A2a [9] = target: T1, Adenosine receptor A2a; assay: Displacement of [3H]-SCH- 58261 binding at human Adenosine A2A receptor expressed in HEK293 cells; ranges from 66-85; type: cell-based
Adenosine receptor A1 [10] = target: T4, Adenosine receptor A1; assay: Displacement of [3H]DPCPX binding at human Adenosine A1 receptor expressed in CHO cells; ranges from 5697-7171; type: cell-based

T1 sequence (P29274 whole entry): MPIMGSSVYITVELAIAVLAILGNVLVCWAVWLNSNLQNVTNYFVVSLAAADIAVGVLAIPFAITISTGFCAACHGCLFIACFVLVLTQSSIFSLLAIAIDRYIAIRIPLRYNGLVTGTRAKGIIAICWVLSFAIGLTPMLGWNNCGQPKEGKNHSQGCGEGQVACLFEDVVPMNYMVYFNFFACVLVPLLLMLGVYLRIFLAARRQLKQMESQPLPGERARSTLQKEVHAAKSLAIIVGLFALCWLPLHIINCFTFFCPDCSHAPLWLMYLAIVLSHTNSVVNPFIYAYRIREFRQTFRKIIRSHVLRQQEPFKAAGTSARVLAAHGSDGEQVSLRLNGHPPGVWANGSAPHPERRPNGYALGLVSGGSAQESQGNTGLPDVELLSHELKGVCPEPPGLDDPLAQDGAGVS

| Compound | Ki (Adenosine receptor A2a [1]) | Ki (Adenosine receptor A3) | Ki (Adenosine receptor A2b) | Ki (Adenosine receptor A1 [2]) | also measured |
| --- | --- | --- | --- | --- | --- |
| N/C(=N\O)c1ccc(CCn2ncc3c2nc(N)n2nc(-c4ccco4)nc32)cc1 | 0.00018 µM | > 10 µM | > 10 µM | 0.179 µM |  |
| N#Cc1ccc(CCCn2ncc3c2nc(N)n2nc(-c4ccco4)nc32)cc1 | 0.086 µM | > 10 µM | > 10 µM | 6.5 µM |  |
| CCOC(=O)COc1ccc(CCn2ncc3c2nc(N)n2nc(-c4ccco4)nc32)cc1 | 0.00043 µM | > 10 µM | > 10 µM | 4.2 µM |  |
| Nc1nc2c(cnn2CCc2ccc(N(CCO)CCO)cc2)c2nc(-c3ccco3)nn12 | 0.00012 µM | > 10 µM | > 10 µM | 0.123 µM |  |
| Nc1nc2c(cnn2CCCc2ccc([N+](=O)[O-])cc2)c2nc(-c3ccco3)nn12 | 0.001 µM | > 10 µM | > 10 µM | 1.03 µM |  |
| Nc1ccc(CCn2ncc3c2nc(N)n2nc(-c4ccco4)nc32)cc1 | 0.00013 µM | > 10 µM | > 10 µM | 0.576 µM |  |
| NCc1ccc(CCCn2ncc3c2nc(N)n2nc(-c4ccco4)nc32)cc1 | 0.006 µM | > 10 µM | > 10 µM | 0.06 µM |  |
| Nc1nc2c(cnn2CCCc2ccc3c(c2)O[C@H](C(=O)O)O3)c2nc(-c3ccco3)nn12 |  | > 10 µM | > 10 µM |  | Ki (Adenosine receptor A1 [3]): 3.6 µM; Ki (Adenosine receptor A2a [4]): 0.059 µM |
| CC(=O)Nc1ccc(CCn2ncc3c2nc(N)n2nc(-c4ccco4)nc32)cc1 | 0.0048 µM | > 10 µM | > 10 µM | 0.419 µM |  |
| Nc1nc2c(cnn2CCc2ccc(S(=O)(=O)N(CCO)CCO)cc2)c2nc(-c3ccco3)nn12 |  | > 10 µM | > 10 µM |  | Ki (Adenosine receptor A2a [5]): 0.0008 µM; Ki (Adenosine receptor A1 [6]): 2.5 µM |
| N/C(=N/O)c1ccc(CCCn2ncc3c2nc(N)n2nc(-c4ccco4)nc32)cc1 | 0.006 µM | > 10 µM | > 10 µM | 0.06 µM |  |
| Nc1nc2c(cnn2CCc2ccc(S(=O)(=O)NCC(=O)O)cc2)c2nc(-c3ccco3)nn12 |  | > 10 µM | > 10 µM |  | Ki (Adenosine receptor A1 [7]): 9.33 µM; Ki (Adenosine receptor A2a [8]): 0.05 µM |
| Nc1nc2c(cnn2CCc2ccc(S(=O)(=O)O)cc2)c2nc(-c3ccco3)nn12 | 0.1 µM | > 10 µM | > 10 µM | 0.19 µM |  |
| Nc1nc2c(cnn2CCCc2cc3c(cc2S(=O)(=O)O)OCO3)c2nc(-c3ccco3)nn12 |  | > 10 µM | > 10 µM |  | Ki (Adenosine receptor A2a [9]): 0.075 µM; Ki (Adenosine receptor A1 [10]): 6.39 µM |
